From PubChem BioAssay (NCI)
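Cells were grown in 96-well plates and exposed to each compound for 48 hours at five concentrations; endpoints were interpolated linearly between bracketing concentrations, or set to the highest concentration if not reached. Definition used: TGI = concentration required for complete inhibition of growth.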

Legend:
Experiment in all cases: inhibition of tumour cell growth, NCI panel, 48 h
[1] = test system: NCI-H522 lung
[2] = test system: K-562 leukemia
[3] = test system: PC-3 prostate
[4] = test system: RPMI-8226 leukemia
[5] = test system: LOX IMVI melanoma
[6] = test system: SF-539 CNS
[7] = test system: HCC-2998 colon
[8] = test system: IGROV1 ovarian
[9] = test system: NCI-H460 lung
[10] = test system: SR leukemia
[11] = test system: SNB-19 CNS
[12] = test system: HT29 colon
[13] = test system: OVCAR-8 ovarian
[14] = test system: NCI/ADR-RES ovarian
[15] = test system: HOP-62 NSCLC
[16] = test system: UO-31 renal
[17] = test system: KM12 colon
[18] = test system: HCT-116 colon
[19] = test system: MDA-MB-231 breast
[20] = test system: OVCAR-3 ovarian
[21] = test system: SF-295 CNS
[22] = test system: SK-MEL-2 melanoma
[23] = test system: MALME-3M melanoma
[24] = test system: CCRF-CEM leukemia
[25] = test system: SK-MEL-5 melanoma
[26] = test system: SF-268 CNS
[27] = test system: BT-549 breast
[28] = test system: A549 NSCLC
[29] = test system: HCT-15 colon
[30] = test system: SN12C renal
[31] = test system: M14 melanoma
[32] = test system: HL-60(TB) leukemia
[33] = test system: U251 CNS
[34] = test system: 786-0 renal
[35] = test system: HS 578T breast
[36] = test system: UACC-257 melanoma
[37] = test system: SNB-75 CNS
[38] = test system: OVCAR-5 ovarian
[39] = test system: UACC-62 melanoma
[40] = test system: MDA-MB-435
[41] = test system: TK-10 renal
[42] = test system: EKVX NSCLC
[43] = test system: SW-620 colon
[44] = test system: SK-MEL-28 melanoma
[45] = test system: NCI-H23 lung
[46] = test system: MDA-N
[47] = test system: DU-145 prostate
[48] = test system: NCI-H226 lung
[49] = test system: RXF 393 renal
[50] = test system: COLO 205 colon
[51] = test system: ACHN renal
[52] = test system: MCF7 breast
[53] = test system: MOLT-4 leukemia
[54] = test system: A498 renal
[55] = test system: SK-OV-3 ovarian
[56] = test system: HOP-92 NSCLC
[57] = test system: T-47D breast
[58] = test system: CAKI-1 renal
[59] = test system: OVCAR-4 ovarian

Measured: TGI

CN(C(=O)C1(C(=O)C=[N+]=[N-])CC1)c1ccccc1
not listed: [54] | [55] | [56] | [57] | [58] | [59]
> 100 µM: all other assays above

CCOC1OCCCC1Br (centres undefined)
not listed: [27] | [32] | [33]
> 100 µM: all other assays above
